{
  "source": "paper PMC7949102",
  "about": "(The Journal of Biological Chemistry, 2021)",
  "molecules": {"B1": {"name": "DdGlud2 (Dictyostelium discoideum) (protein)", "chain": "MLNQNLTISQEIAAQPKTQYFTKEDGDALANLLESNPYKEQAVEVKSLLKSERLIESSRVEPEVDWFYCKLGLDSNYFDSTPSIVIARHILSLYAAKMVSHATGAKLEVHLHSKNEGSATFITPSNPGKRDSPAMMIEHAIESHYFGEGYHQDQQLLSPQQVAVAPFPVSPKPPTGTNLPPHGFRLACYRTTGTVSNSSPVHLRLYYLTKPVFPQATNDLSASKNDEILATETDLFKIGDISFIEKSSELTKKIYQEVMNEVVGKQGPVIKHYPYQTNGARLVIAYRRGSTHSYWSAIGELYHFHQMYATHKYVEQFSNGITIYSIYLRPLHPDVDINTKISKIAEQASLVYVLPRTSLTPLFLSHQLSFPEVTYAYVCWKFAYQFLNRYATEYSALAAAIGDDSTKQSMLAQLKTRLSKDTFTEGRVRDAVLQYPELIKILYQDFEKFHFSGSNSNNTQKYDVQHGSEILASIKKTVNNELDSQIFSAILSFNRHLLKTNFYKQTKTALSFRLDPGFLSTKEYVSTPYAVFFVVGSEFRGFHIRFRDISRGGIRIIRSGNSTQYDHNSSSLFDENYNLANTQQSKNKDIAEGGSKGTILLSADHQSKAEVAFHKYIDGLLDLLLPNHEIVDHFAKPEILFLGPDEGTADFMNWASSHAKDRGAHFWKAFTTGKSLSRGGIPHDLYGMTTRSIHQYVLGTLAKLGRNEADCTKFQTGGPDGDLGSNEIKISKDKTIGIVDGSGVLLDPQGLNRDEIGRLASKRQMARYFDKSKLSPQGFFVDVAENDVKLPNGDIVESGLIFRNNFHLNPLCNADIFVPCGGRPESVQLTNVDKMFTATGESRFPIIVEGANLFFTQKARLMIEEKGAIIFKDASANKGGVTSSSLEVLAALALNDEEFDRHMCVKDNVVPEFYENYIKDVHHTIESNARLEFECIWSEHESTKTPRSILSDLLSNKINSLNDSIQTSSLWTDQSLRRKIISAACPKVLLNLLGVDKIMERVPEPYVKAIFGSYLASRFVYKYGLNSNEFAFYTYMETLKQQ"}, "B2": {"name": "Dictyostelium discoideum Glud2 (NAD+-dependent glutamate dehydrogenase of the 115-kDa class) (enzyme, UniProt Q54VI3 1-1042, looked up)", "chain": "MLNQNLTISQEIAAQPKTQYFTKEDGDALANLLESNPYKEQAVEVKSLLKSERLIESSRVEPEVDWFYCKLGLDSNYFDSTPSIVIARHILSLYAAKMVSHATGAKLEVHLHSKNEGSATFITPSNPGKRDSPAMMIEHAIESHYFGEGYHQDQQLLSPQQVAVAPFPVSPKPPTGTNLPPHGFRLACYRTTGTVSNSSPVHLRLYYLTKPVFPQATNDLSASKNDEILATETDLFKIGDISFIEKSSELTKKIYQEVMNEVVGKQGPVIKHYPYQTNGARLVIAYRRGSTHSYWSAIGELYHFHQMYATHKYVEQFSNGITIYSIYLRPLHPDVDINTKISKIAEQASLVYVLPRTSLTPLFLSHQLSFPEVTYAYVCWKFAYQFLNRYATEYSALAAAIGDDSTKQSMLAQLKTRLSKDTFTEGRVRDAVLQYPELIKILYQDFEKFHFSGSNSNNTQKYDVQHGSEILASIKKTVNNELDSQIFSAILSFNRHLLKTNFYKQTKTALSFRLDPGFLSTKEYVSTPYAVFFVVGSEFRGFHIRFRDISRGGIRIIRSGNSTQYDHNSSSLFDENYNLANTQQSKNKDIAEGGSKGTILLSADHQSKAEVAFHKYIDGLLDLLLPNHEIVDHFAKPEILFLGPDEGTADFMNWASSHAKDRGAHFWKAFTTGKSLSRGGIPHDLYGMTTRSIHQYVLGTLAKLGRNEADCTKFQTGGPDGDLGSNEIKISKDKTIGIVDGSGVLLDPQGLNRDEIGRLASKRQMARYFDKSKLSPQGFFVDVAENDVKLPNGDIVESGLIFRNNFHLNPLCNADIFVPCGGRPESVQLTNVDKMFTATGESRFPIIVEGANLFFTQKARLMIEEKGAIIFKDASANKGGVTSSSLEVLAALALNDEEFDRHMCVKDNVVPEFYENYIKDVHHTIESNARLEFECIWSEHESTKTPRSILSDLLSNKINSLNDSIQTSSLWTDQSLRRKIISAACPKVLLNLLGVDKIMERVPEPYVKAIFGSYLASRFVYKYGLNSNEFAFYTYMETLKQQ", "notes": "also called DdGlud2; Dictyostelium Glud2; not shown: 6X-His, N-terminal, cleaved; SUMO (yeast SMT3), N-terminal, cleaved"}},
  "key": {"Lart1": {"molecular_target": "Lart1 (Legionella pneumophila, UniProt Q5ZZ30)", "sequence (Q5ZZ30 whole entry, looked up)": "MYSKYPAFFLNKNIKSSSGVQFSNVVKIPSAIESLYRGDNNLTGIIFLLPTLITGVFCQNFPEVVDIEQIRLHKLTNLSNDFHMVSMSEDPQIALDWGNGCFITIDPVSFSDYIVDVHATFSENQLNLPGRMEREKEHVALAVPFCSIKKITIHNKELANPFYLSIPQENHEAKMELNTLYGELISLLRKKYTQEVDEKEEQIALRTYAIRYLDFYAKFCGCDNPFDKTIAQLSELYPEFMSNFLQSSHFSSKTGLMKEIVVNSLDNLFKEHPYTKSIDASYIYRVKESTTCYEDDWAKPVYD", "details": "250 μM etheno-NAD+, 0-8 mM nicotinamide, 0.5 mg/ml DdGlud2; pH 7.5, 100 mM NaCl, room temperature"}, "Llo2453": {"molecular_target": "T1, Llo2453 (Legionella longbeachae, UniProt D3HKA9)", "T1 construct": "gene LLO_2453", "T1 sequence (D3HKA9 1-303)": "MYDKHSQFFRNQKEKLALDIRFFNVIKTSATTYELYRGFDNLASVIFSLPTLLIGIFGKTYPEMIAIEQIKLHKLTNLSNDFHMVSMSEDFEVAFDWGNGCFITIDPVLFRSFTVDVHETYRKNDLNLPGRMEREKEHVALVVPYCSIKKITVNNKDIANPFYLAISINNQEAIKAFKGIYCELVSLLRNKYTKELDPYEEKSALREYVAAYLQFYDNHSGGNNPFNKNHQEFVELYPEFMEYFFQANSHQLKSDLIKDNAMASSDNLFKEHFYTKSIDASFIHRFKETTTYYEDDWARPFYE", "type": "biochemical"}, "Ltuc1293": {"molecular_target": "T2, Ltuc1293 (Legionella tucsonensis, UniProt A0A0W0ZWS2)", "T2 construct": "gene Ltuc_1293", "T2 sequence (A0A0W0ZWS2 1-330)": "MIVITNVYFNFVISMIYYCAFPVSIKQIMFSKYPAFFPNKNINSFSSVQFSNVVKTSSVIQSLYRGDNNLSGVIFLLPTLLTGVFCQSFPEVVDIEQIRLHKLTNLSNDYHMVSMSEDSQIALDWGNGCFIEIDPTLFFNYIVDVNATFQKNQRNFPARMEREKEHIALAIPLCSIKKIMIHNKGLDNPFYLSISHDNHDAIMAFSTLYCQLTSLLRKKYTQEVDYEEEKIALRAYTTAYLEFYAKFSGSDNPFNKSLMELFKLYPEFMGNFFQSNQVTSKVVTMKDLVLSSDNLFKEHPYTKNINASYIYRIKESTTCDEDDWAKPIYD", "type": "biochemical"}, "DdGlud2": {"molecular_target": "T3, DdGlud2 (Dictyostelium discoideum, UniProt Q54VI3)", "T3 construct": "gene glud2; full-length, His6-SUMO tag cleaved by ULP, E. coli BL21 Rosetta; elutes at 212 kDa", "T3 sequence (Q54VI3 1-1042)": "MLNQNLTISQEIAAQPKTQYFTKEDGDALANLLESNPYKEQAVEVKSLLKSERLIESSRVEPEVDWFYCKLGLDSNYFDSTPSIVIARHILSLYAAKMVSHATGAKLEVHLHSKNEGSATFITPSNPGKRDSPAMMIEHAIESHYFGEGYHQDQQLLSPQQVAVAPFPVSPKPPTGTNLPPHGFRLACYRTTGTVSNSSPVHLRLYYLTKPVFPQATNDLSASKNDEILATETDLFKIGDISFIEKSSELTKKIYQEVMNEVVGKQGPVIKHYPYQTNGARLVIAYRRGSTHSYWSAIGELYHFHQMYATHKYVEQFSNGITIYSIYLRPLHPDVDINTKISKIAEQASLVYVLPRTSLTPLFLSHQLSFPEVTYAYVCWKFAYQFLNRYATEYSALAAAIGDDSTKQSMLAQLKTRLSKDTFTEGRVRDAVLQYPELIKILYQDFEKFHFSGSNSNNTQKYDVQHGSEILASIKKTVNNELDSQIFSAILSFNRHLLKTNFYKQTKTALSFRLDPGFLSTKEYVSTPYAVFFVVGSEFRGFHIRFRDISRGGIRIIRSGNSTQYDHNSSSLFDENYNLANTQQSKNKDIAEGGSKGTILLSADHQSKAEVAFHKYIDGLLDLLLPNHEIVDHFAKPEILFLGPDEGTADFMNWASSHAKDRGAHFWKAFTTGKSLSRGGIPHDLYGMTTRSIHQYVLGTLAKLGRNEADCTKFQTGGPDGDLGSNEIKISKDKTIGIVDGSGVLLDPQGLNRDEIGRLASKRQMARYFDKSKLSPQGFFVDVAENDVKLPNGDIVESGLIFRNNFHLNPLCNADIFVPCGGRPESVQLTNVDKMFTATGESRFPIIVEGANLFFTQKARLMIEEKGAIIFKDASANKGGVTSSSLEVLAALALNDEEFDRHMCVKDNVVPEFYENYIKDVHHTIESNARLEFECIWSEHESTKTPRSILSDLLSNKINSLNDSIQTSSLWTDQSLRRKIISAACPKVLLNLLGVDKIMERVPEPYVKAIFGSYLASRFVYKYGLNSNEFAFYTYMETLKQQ", "test": "NADH formation at […] nm", "type": "biochemical", "details": "activator; 1 mM GTP, 10 mM Glu, 1 mM NAD+; pH 8.0, 23 °C"}, "purified protein": {"substrate": "N[C@@H](CCC(=O)O)C(=O)O", "test": "purified protein", "details": "5 mM NAD+, 100 mM Tris-HCl pH 8.0, 0.1 mg/ml BSA, 1 mM DTT, 23 °C, oxidative deamination"}, "SEC": {"molecular_target": "the molecule itself", "test": "SEC"}},
  "data": [
    {"molecule": "NC(=O)c1cccnc1", "note": "[nicotinamide]", "values": [
      {"measurement": "inhibition", "setting": "Lart1", "result": "Lart1 ADP ribosylation was inhibited by free nicotinamide in ≥ twofold excess of NAD+"}
    ]},
    {"molecule": "NC(=O)c1ccc[n+]([C@@H]2O[C@H](COP(=O)(O)OP(=O)(O)OC[C@H]3O[C@@H](n4cnc5c4ncn4ccnc54)[C@H](O)[C@@H]3O)[C@@H](O)[C@H]2O)c1", "note": "[etheno-NAD+]", "values": [
      {"measurement": "ADP-ribosylation of DdGlud2, anti-ethenoadenosine immunoblot", "setting": "Llo2453", "result": "ADP-ribosylated DdGlud2 in assays using both etheno-NAD+ and biotin-NAD+ as substrates"},
      {"measurement": "ADP-ribosylation of DdGlud2, anti-ethenoadenosine immunoblot", "setting": "Ltuc1293", "result": "ADP-ribosylated DdGlud2 in assays using both etheno-NAD+ and biotin-NAD+ as substrates"}
    ]},
    {"molecule": "Nc1nc2c(ncn2[C@@H]2O[C@H](COP(=O)(O)OP(=O)(O)OP(=O)(O)O)[C@@H](O)[C@H]2O)c(=O)[nH]1", "note": "[GTP]", "values": [
      {"measurement": "fold stimulation at 1 mM", "setting": "DdGlud2", "result": 2.5, "unit": "fold"}
    ]},
    {"molecule": "B1", "values": [
      {"measurement": "Km", "setting": "purified protein", "result": "18.53 (95% CI 10.72, 32.15) mM"}
    ]},
    {"molecule": "B2", "values": [
      {"measurement": "stoichiometry N", "setting": "SEC", "result": 2}
    ]}
  ]
}
